Laboratory results taken from patent publication US11377451B2, “Compositions and methods for treating cancer” (The Regents of the University of California, priority 2019, dated 2022).
Read-outs that look alike come from different tables or passages of the source.

What was measured:
[1] = Idasanutlin brain and plasma concentrations by mass spectrometry; type: in vivo; details: male, CD-1, mouse, mice with an intact blood-brain-barrier, 50 mg/kg oral gavage
Experimental: Male CD-1 mice (6-8 weeks old) were treated with 50 mg/kg Idasanutlin in duplicate through oral gavage. At 0.5, 1, 2, 4, 6, 8, 12, and 24 hr after administration, mice were sacrificed, blood was harvested by retro-orbital bleeding, and brain tissue was collected. Whole blood from mice was centrifuged to isolate plasma. Idasanutlin was isolated by liquid-liquid extraction from plasma: 50 μL plasma was added to 2 μL internal standard and 100 μL acetonitrile. Mouse brain tissue was washed with 2 mL cold PBS and homogenized using a tissue homogenizer with fresh 2 mL cold PBS. Idasanutlin was then isolated and reconstituted in a similar manner by liquid-liquid extraction: 100 μL brain homogenate was added to 2 μL internal standard and 200 μL acetonitrile. After vortex mixing, the samples was centrifuged. The supernatant was removed and evaporated by a rotary evaporator and reconstituted in 100 μL 50:50 water: acetonitrile.
Chromatographic separations were performed on a 100×2.1 mm Phenomenex Kinetex C18 column (Kinetex) using the 1290 Infinity LC system (Agilent). The mobile phase was composed of solvent A: 0.1% formic acid in Milli-Q water, and B: 0.1% formic acid in acetonitrile. […] Analyte signal was normalized to the internal standard and concentrations were determined by comparison to the calibration curve (0.5, 5, 50, 250, 500, 2000 nM). […]

[2] = system: p53; experiment: Immunohistochemistry of p53 in orthotopic tumor-bearing mice; type: in vivo; details: 50 mg/kg, 36 hours
Experimental: Immunohistochemistry was performed on 4 μm sections that were cut from FFPE (formalin-fixed, paraffin-embedded) blocks. Sections were then deparaffinised with xylene and rehydrated through graded ethanol. […] Tissue sections were then treated with 3% hydrogen peroxide (LOT 161509; Fisher Chemical) and with Background Sniper (Biocare Medical, Concord, Calif., USA) to reduce nonspecific background staining. Primary antibody for p53 (Cell Signaling, 2527) was applied in a 1:150 dilution for 80 min followed by detection with the MACH 3 Rabbit HRP-Polymer Detection kit (Biocare Medical). Visualization was achieved using VECTOR NovaRED (SK-4800; Vector Laboratories, Inc.) as chromogen. Lastly, sections were counterstained with Tacha's Automated Hematoxylin (Biocare Medical).

[3] = Protein binding (fraction unbound in blood and brain)
[4] = Pharmacokinetic / brain penetration studies in mice; type: in vivo
Experimental: Pharmacokinetic studies were performed on male CD-1 mice aged 8-10 weeks. Mice were dosed as indicated in duplicates. At the time points, whole blood was obtained by retro-orbital bleeding and brain tissue was harvested. Blood samples were centrifuged to obtain plasma and brain tissue was washed and homogenized. Samples were extracted with acetonitrile and supernatant was dried using a speed-vac. Dried samples were solubilized in 50:50:0.1 acetonitrile:water:formic acid and quantified on an Agilent 6400 series Triple Quadrupole LC/MS.
Disclosed in table 5 Brain to plasma percentages and unbound ratios of drugs in brain to plasma of indicated drugs in non-tumor bearing mice

[5] = system: HK301; experiment: GI50 assay (Cell Titer Glo proliferation, 3 days); type: cell-based, human; details: Homo sapiens, 72 h, read-out: HK301 GI50 (nM)
[6] = system: patient-derived GBM gliomaspheres; experiment: Annexin V apoptosis assay; type: cell-based, human; details: 72 hours of erlotinib exposure, 1 μM
Experimental: Cells were collected and analyzed for Annexin V and PI staining according to manufacturer's protocol (BD Biosciences). Briefly, cells were plated at 5×10^4 cells/ml and treated with appropriate drugs. Following indicated time points, cells were collected, trypsinized, washed with PBS, and stained with Annexin V and PI for 15 minutes. Samples were then analyzed using the BD LSRII flow cytometer.
Annexin V staining was measured following 72 hrs of treatment. Using the Chalice software, the response of the combination was compared to its single agents. The combinatorial effects were calculated using the synergy score.

[7] = system: gliomas; details: cited from earlier work
[8] = system: BIM, PUMA; PI3K-AKT-mTOR signaling; experiment: Immunoblotting; type: cell-based, human; details: only in the metabolic responder cultures, acute erlotinib treatment
Experimental: Cells were collected and lysed in RIPA buffer (Boston BioProducts) containing Halt Protease and Phosphatase Inhibitor (Thermo Fischer Scientific). Lysates were centrifuged at 14,000×g for 15 min at 4° C. […] Membranes were developed using the SuperSignal system (Thermo Fischer Scientific).

[9] = system: patient-derived GBM gliomaspheres; experiment: 18F-FDG uptake assay; type: cell-based, human; details: metabolic responder GBMs, erlotinib 1 μM, 4 hours
Experimental: Cells were plated at 5×10^4 cells/ml and treated with designated drugs for indicated time points. Following appropriate treatment, cells were collected and resuspended in glucose-free DMEM/F12 (USBiological) containing ^18F-FDG (radioactivity 1 μCi/mL). Cells were incubated at 37° C. for 1 hr and then washed three times with ice cold PBS. Radioactivity of each sample was then measured using a gamma counter.

[10] = cited from earlier work
[11] = system: GBM39 and HK393 intracranial xenografts; experiment: Intracranial delayed 18F-FDG PET/CT mouse imaging; type: in vivo, mice
Experimental: Following 1 hr unconscious uptake, mice were taken off anesthesia but kept warm for another 5 hr of uptake. 6 hr after the initial administration of ^18F-FDG, mice were imaged using G8 PET/CT scanner (Sofie Biosciences). Per above, quantification was performed by drawing 3D regions of interest (ROI) using the AMIDE software.

[12] = higher dose: Erlotinib 1500 (weekly), Gefitinib 750-1000

COc1cc(C(=O)O)ccc1NC(=O)[C@@H]1N[C@@H](CC(C)(C)C)[C@](C#N)(c2ccc(Cl)cc2F)[C@H]1c1cccc(Cl)c1F [Idasanutlin]
Kp [1]: 0.35 | p53 stabilization in tumor [2]: stabilizes p53

C#Cc1cccc(Nc2ncnc3cc(OCCOC)c(OCCOC)cc23)c1 [Erlotinib, erlotinib]
Bound (blood) ([3]; blood): 95.12% | fraction unbound ([3]; blood, Fu (blood)): 0.0488 | Bound (brain) ([3]; brain): 97.07% | fraction unbound ([3]; brain, Fu (brain)): 0.0293 | Kpuu (Avg) ([4]; Table 4, unbound partition coefficient of the brain and plasma, at equilibrium): 0.0513 | Kpuu (Avg) ([4]; Table 5, unbound ratios of drugs in brain to plasma, non-tumor bearing mice): 0.051 | GI50 [5]: 642 nM | apoptosis (annexin V staining) ([6]; metabolic responders): ~17% | apoptosis (annexin V staining) ([6]; non-responders): ~3% | response rates against gliomas [7]: ≤ 25% | expression of pro-apoptotic BH3-only proteins BIM and PUMA [8]: promoted the expression | radio-labeled glucose uptake (18F-FDG) [9]: significantly attenuated | CSF ([10]; Daily Dose: Afatinib 50, Alectinib 1200, Crizotinib 500, Erlotinib 150, Gefitinib 250, Lapatinib 1250): 28.7 ± 16.8 ng/mL | Plasma ([10]; Daily Dose: Afatinib 50, Crizotinib 500, Erlotinib 150, Gefitinib 250, Lapatinib 1250): 1140 ± 937 ng/mL | CSF [10, 12]: 51.1 ng/mL | Plasma [10, 12]: 4445.9 ng/mL | 18F-FDG uptake (PET) ([11]; GBM39 orthotopic xenografts, erlotinib 75 mg/kg, 15 hours post administration): rapidly reduced | 18F-FDG uptake (PET) ([11]; HK393 orthotopic xenografts (non-metabolic responder), acute EGFRi): no changes
